Test results from patent publication US20030181354A1, “Method for central nervous system targeting through the ocular route of drug delivery” (priority 2002, published 2003).

How the values were obtained:
memory = details: very small doses, monkeys; cited from earlier work
[1] = reported; cited from earlier work
[2] = Experimental: A study was conducted to examine for the first time the neuro-ocular tissue distribution of brimonidine following one single 50 μl instillation of 3H-Alphagan aqueous solution (0.2%) into the albino rabbit eye. Both eyes and the brain were dissected. Both side specimens of aqueous humor, cornea, iris, lens, vitreous, conjunctiva, sclera, ciliary body, choroid, retina, optic nerve, optic tract, olfactory bulb, as well as corpus callosum and blood samples were collected. The corpus callosum was chosen as an indicator of general availability of the drug in the brain. The olfactory bulbs were included to rule out ocular-brain drug delivery through the nasal cavity.
In the method employed, following single instillation of 50 μl of [3H]-radio labeled brimonidine tartrate in the cul-de-sac of the right eye, male albino rabbits (2-2.5 kg) were sacrificed at the selected time point (15, 30 min., 1, 2. 3, and 4 h). Both eyes and the brain were dissected. Both sides specimens of aqueous humor, cornea, iris, lens, vitreous, conjunctiva, sclera, ciliary body, choroid, retina, optic nerve, optic tract, as well as chiasm, cerebral and blood samples were weighted before combustion in Packard sample Oxidizer (model 307), and radioactive [3H] brimonidine liquid scintillation counting.

[3] = tested on: alpha 2-adrenoceptor regulated serotonin release; details: rat hippocampus in vivo; cited from earlier work
[4] = tested on: migraine related symptoms; details: 0.2% topical to the eye, as additional antiglaucoma agent
Description: A patient with a history of migraine, and both eyes primary open angle glaucoma.
A patient with a history of migraine, and right eye primary open angle glaucoma.

Brc1c(NC2=NCCN2)ccc2nccnc12 [brimonidine, 5-bromo-6-(2-imidozolin-2-ylamino) quinoxaline]
effect on memory (memory): reliable but modest improvement of memory
systemic half life [1]: 3 h
contralateral eye choroid peak higher than in the blood ([2]; 15 min, P<0.001): 99.5 folds
contralateral eye ciliary body peak higher than in the blood ([2]; 15 min, P<0.001): 76.5 folds
corpus callosum AUC higher than in the left optic nerve ([2]; P<0.01): 118%
corpus callosum AUC higher than in the right optic nerve ([2]; P<0.01): 177%
corpus callosum AUC higher than in the right optic tract ([2]; P<0.05): 123%
corpus callosum AUC higher than in the left optic tract ([2]; P<0.10): 111%
corpus callosum 3H-brimonidine concentration ([2]; at 5 min): 993.79 ± 48.43 ng/g
corpus callosum concentration higher than in the right optic nerve ([2]; at 5 min, P<0.001): 763%
brimonidine concentration in the corpus callosum higher than in the blood ([2]; at 5 minutes, P<0.001): 148 folds
drug concentration detected in the blood samples ([2]; blood, after ocular instillation): extremely low
time of brimonidine delivery to the ciliary body of the contralateral eye ([2]; contralateral eye): < 5 min
ciliary body brimonidine level ([2]; contralateral eye, 5 minutes post drug application): 444.28 ± 86.38 ng/g
ciliary body brimonidine level, peak ([2]; contralateral eye, 15 minutes): 619.74 ± 36.35 ng/g
ciliary body AUC higher than in the conjunctiva ([2]; contralateral eye, P<0.001): 340%
ciliary body AUC higher than in the retina ([2]; contralateral eye, P<0.001): 322%
choroid AUC higher than in the conjunctiva ([2]; contralateral eye, P<0.01): 290%
choroid AUC higher than in the retina ([2]; contralateral eye, P<0.01): 275%
drug levels observed in the olfactory bulbs ([2]; olfactory bulbs): low
Vitreal AUC as % of aqueous humor AUC ([2]; treated eye, P<0.01): 8.85%
Choroidal brimonidine AUC higher than retinal AUC ([2]; treated eye, p<0.001): 196%
Retinal AUC higher than vitreous AUC ([2]; treated eye, p<0.001): 636%
Vitreal AUC as % of retinal AUC ([2]; treated eye, p<0.001): 15.7%
brimonidine AUC corpus callosum higher than blood ([2]; whole study period, P<0.001): 40 folds
effect on release of serotonin (5-HT) [3]: inhibitory action

tartrate of 5-bromo-6-(2-imidozolin-2-ylamino) quinoxaline [brimonidine tartrate]
patient-reported effect on migraine related symptoms [4]: substantial relief of migraine related symptoms
